Results: ChEMBL document CHEMBL1287762, “Synthesis and biological evaluation of 3-[4-(amino/methylsulfonyl)phenyl]methylene-indolin-2-one derivatives as novel COX-1/2 and 5-LOX inhibitors” (Bioorg Med Chem Lett, 2010)
Structures can show the parent of a compound that is named as a salt.

Legend:
[1] = target: T1, Prostaglandin G/H synthase 2 (Oryctolagus cuniculus, UniProt O02768); assay: Inhibition of COX-2 in rabbit peripheral venous blood assessed as formation of 12-hydroxyheptadecatrienoic acid after 24 hrs in by HPLC presence of calcium ionophore […] and lipopolysaccharide; assay type: tissue-based
T1 sequence (O02768 whole entry): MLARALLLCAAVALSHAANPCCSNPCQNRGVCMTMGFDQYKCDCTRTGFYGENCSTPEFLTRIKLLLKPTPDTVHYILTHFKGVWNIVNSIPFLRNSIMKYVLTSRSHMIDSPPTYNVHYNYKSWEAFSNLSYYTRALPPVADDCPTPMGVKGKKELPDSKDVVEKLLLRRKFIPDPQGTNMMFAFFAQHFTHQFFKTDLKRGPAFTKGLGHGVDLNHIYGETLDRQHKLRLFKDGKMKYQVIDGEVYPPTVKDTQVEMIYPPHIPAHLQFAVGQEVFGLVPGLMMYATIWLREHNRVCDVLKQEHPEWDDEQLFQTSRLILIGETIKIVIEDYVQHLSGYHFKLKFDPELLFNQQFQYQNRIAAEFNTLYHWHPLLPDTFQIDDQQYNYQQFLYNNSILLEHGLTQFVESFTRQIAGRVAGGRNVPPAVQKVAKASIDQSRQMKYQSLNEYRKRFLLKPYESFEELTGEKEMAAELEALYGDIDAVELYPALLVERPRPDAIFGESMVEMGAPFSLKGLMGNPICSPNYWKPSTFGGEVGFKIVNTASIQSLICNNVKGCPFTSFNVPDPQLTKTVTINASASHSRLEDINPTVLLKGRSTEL

Rattus norvegicus [2] = assay: Antiinflammatory activity in Wistar rat assessed as inhibition of carrageenan-induced paw edema at 10.47 mg/kg, po administered 1 hr before carrageenan challenge measured at 6 hrs by plethysmometer; assay type: functional
Rattus norvegicus [3] = assay: Antiinflammatory activity in Wistar rat assessed as inhibition of carrageenan-induced paw edema at 10.47 mg/kg, po administered 1 hr before carrageenan challenge measured at 3 hrs by plethysmometer; assay type: functional
Rattus norvegicus [4] = assay: Antiinflammatory activity in Wistar rat assessed as inhibition of carrageenan-induced paw edema at 10.47 mg/kg, po administered 1 hr before carrageenan challenge measured at 1 hr by plethysmometer; assay type: functional
[5] = Inhibition of 5-LOX in rabbit peripheral venous blood assessed as formation of […] after 30 mins by HPLC; assay type: tissue-based, Oryctolagus cuniculus
Mus musculus [6] = assay: Analgesic activity in BALB/c mouse assessed as inhibition of acetic acid-induced writhing response for 15 mins at 20.94 mg/kg, po; assay type: functional; details: 0.25 h
Rattus norvegicus [7] = assay: Ulcerogenic effect in Wistar rat assessed as gastric ulcer area at 10.47 mg/kg, po administered for 7 days by microscopy; assay type: toxicity, organism-based, Stomach; parameters: dose 10.47 mg/kg, route oral; details: in vivo, 168 h
[8] = target: T2, Prostaglandin G/H synthase 1 (Oryctolagus cuniculus, UniProt O97554); assay: Inhibition of COX-1 in rabbit peripheral venous blood assessed as formation of 12-hydroxyheptadecatrienoic acid after 24 hrs by HPLC in presence of calcium ionophore A23187
T2 sequence (O97554 whole entry): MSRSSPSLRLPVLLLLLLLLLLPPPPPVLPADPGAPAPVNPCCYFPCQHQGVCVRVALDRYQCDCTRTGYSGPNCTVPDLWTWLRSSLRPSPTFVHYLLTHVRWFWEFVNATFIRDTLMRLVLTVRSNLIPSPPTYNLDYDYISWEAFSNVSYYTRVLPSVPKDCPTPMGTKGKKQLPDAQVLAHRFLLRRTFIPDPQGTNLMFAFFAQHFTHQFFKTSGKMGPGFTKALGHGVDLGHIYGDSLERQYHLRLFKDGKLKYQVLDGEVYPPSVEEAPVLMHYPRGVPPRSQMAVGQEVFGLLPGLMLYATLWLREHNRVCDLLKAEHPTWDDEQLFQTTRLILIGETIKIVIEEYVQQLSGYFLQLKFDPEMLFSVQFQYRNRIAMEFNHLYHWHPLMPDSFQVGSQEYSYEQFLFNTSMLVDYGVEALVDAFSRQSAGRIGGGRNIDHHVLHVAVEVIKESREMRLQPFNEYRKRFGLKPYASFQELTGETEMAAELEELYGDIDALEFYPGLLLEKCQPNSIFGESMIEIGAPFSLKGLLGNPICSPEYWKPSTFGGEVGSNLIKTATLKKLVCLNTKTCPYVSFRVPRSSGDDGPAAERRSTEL

Oryctolagus cuniculus = organism: Oryctolagus cuniculus; assay: Selectivity ratio, IC50 for COX-1in rabbit peripheral venous blood to IC50 for COX-2 in rabbit peripheral venous blood; assay type: tissue-based
Mus musculus [9] = assay: Analgesic activity in BALB/c mouse assessed as inhibition of acetic acid-induced writhing response for 15 mins at 20.24 mg/kg, po; assay type: functional; details: 0.25 h
Rattus norvegicus [10] = assay: Antiinflammatory activity in Wistar rat assessed as inhibition of carrageenan-induced paw edema at 10.12 mg/kg, po administered 1 hr before carrageenan challenge measured at 6 hrs by plethysmometer; assay type: functional
Rattus norvegicus [11] = assay: Ulcerogenic effect in Wistar rat assessed as gastric ulcer area at 10.12 mg/kg, po administered for 7 days by microscopy; assay type: toxicity, organism-based, Stomach; parameters: dose 10.12 mg/kg, route oral; details: in vivo, 168 h
Rattus norvegicus [12] = assay: Antiinflammatory activity in Wistar rat assessed as inhibition of carrageenan-induced paw edema at 10.12 mg/kg, po administered 1 hr before carrageenan challenge measured at 1 hr by plethysmometer; assay type: functional
Rattus norvegicus [13] = assay: Antiinflammatory activity in Wistar rat assessed as inhibition of carrageenan-induced paw edema at 10.12 mg/kg, po administered 1 hr before carrageenan challenge measured at 3 hrs by plethysmometer; assay type: functional
Rattus norvegicus [14] = assay: Ulcerogenic effect in Wistar rat assessed as gastric ulcer area at 13 mg/kg, po administered for 7 days by microscopy; assay type: toxicity, organism-based, Stomach; parameters: dose 13 mg/kg, route oral; details: in vivo, 168 h
Rattus norvegicus [15] = assay: Antiinflammatory activity in Wistar rat assessed as inhibition of carrageenan-induced paw edema at 1 mg/kg, po administered 1 hr before carrageenan challenge measured at 3 hrs by plethysmometer; assay type: functional
Rattus norvegicus [16] = assay: Antiinflammatory activity in Wistar rat assessed as inhibition of carrageenan-induced paw edema at 13 mg/kg, po administered 1 hr before carrageenan challenge measured at 1 hr by plethysmometer; assay type: functional
Rattus norvegicus [17] = assay: Antiinflammatory activity in Wistar rat assessed as inhibition of carrageenan-induced paw edema at 13 mg/kg, po administered 1 hr before carrageenan challenge measured at 6 hrs by plethysmometer; assay type: functional
Mus musculus [18] = assay: Analgesic activity in BALB/c mouse assessed as inhibition of acetic acid-induced writhing response for 15 mins at 26 mg/kg, po; assay type: functional; details: 0.25 h
Rattus norvegicus [19] = assay: Ulcerogenic effect in Wistar rat assessed as gastric ulcer area at 10.38 mg/kg, po administered for 7 days by microscopy; assay type: toxicity, organism-based, Stomach; parameters: dose 10.38 mg/kg, route oral; details: in vivo, 168 h
Rattus norvegicus [20] = assay: Antiinflammatory activity in Wistar rat assessed as inhibition of carrageenan-induced paw edema at 10.38 mg/kg, po administered 1 hr before carrageenan challenge measured at 3 hrs by plethysmometer; assay type: functional
Mus musculus [21] = assay: Analgesic activity in BALB/c mouse assessed as inhibition of acetic acid-induced writhing response for 15 mins at 20.76 mg/kg, po; assay type: functional; details: 0.25 h
Rattus norvegicus [22] = assay: Antiinflammatory activity in Wistar rat assessed as inhibition of carrageenan-induced paw edema at 10.38 mg/kg, po administered 1 hr before carrageenan challenge measured at 1 hr by plethysmometer; assay type: functional
Rattus norvegicus [23] = assay: Antiinflammatory activity in Wistar rat assessed as inhibition of carrageenan-induced paw edema at 10.38 mg/kg, po administered 1 hr before carrageenan challenge measured at 6 hrs by plethysmometer; assay type: functional

## NS(=O)(=O)c1ccc(/C=C2/C(=O)Nc3ccc([N+](=O)[O-])cc32)cc1
[1]
  IC50: 3.72 µM
Rattus norvegicus [2]
  inhibition in vivo at 10.47 mg/kg: 13.7%
Rattus norvegicus [3]
  inhibition in vivo at 10.47 mg/kg: 22.2%
Rattus norvegicus [4]
  inhibition in vivo at 10.47 mg/kg: 9.52%
[5]
  IC50: 3.06 µM
Mus musculus [6]
  inhibition in vivo at 20.94 mg/kg: 40.8%
Rattus norvegicus [7]
  Activity: 0.12 mm2
[8]
  IC50: 0.14 µM
Oryctolagus cuniculus
  Ratio IC50: 0.04

## NS(=O)(=O)c1ccc(/C=C2/C(=O)Nc3cc(Cl)ccc32)cc1
[1]
  IC50: > 50 µM
[5]
  IC50: > 50 µM
[8]
  IC50: > 50 µM

## CS(=O)(=O)c1ccc(/C=C2/C(=O)Nc3ccc(Cl)cc32)cc1
[1]
  IC50: 3.82 µM
[5]
  IC50: > 50 µM
Mus musculus [9]
  inhibition in vivo at 20.24 mg/kg: 63.3%
[8]
  IC50: > 50 µM
Rattus norvegicus [10]
  inhibition in vivo at 10.12 mg/kg: 41.7%
Rattus norvegicus [11]
  Activity: 0.88 mm2
Rattus norvegicus [12]
  inhibition in vivo at 10.12 mg/kg: 14.3%
Rattus norvegicus [13]
  inhibition in vivo at 10.12 mg/kg: 15.7%

## NS(=O)(=O)c1ccc(/C=C2/C(=O)Nc3ccccc32)cc1
[1]
  IC50: > 50 µM
[5]
  IC50: > 50 µM
[8]
  IC50: > 50 µM

## CC(C)(C)c1cc(/C=C2\SC(N)=NC2=O)cc(C(C)(C)C)c1O [DARBUFELONE MESYLATE]
[1]
  IC50: 0.11 µM
[8]
  IC50: 37.6 µM

## CC(C)(C)c1cc(/C=C2\SC(=N)NC2=O)cc(C(C)(C)C)c1O.CS(=O)(=O)O [DARBUFELONE MESYLATE]
Rattus norvegicus [14]
  Activity: 0.87 mm2
[5]
  IC50: 0.61 µM
Rattus norvegicus [15]
  inhibition in vivo at 1 mg/kg: 36.1%
Oryctolagus cuniculus
  Ratio IC50: 342
Rattus norvegicus [16]
  inhibition in vivo at 13 mg/kg: 19.1%
Rattus norvegicus [17]
  inhibition in vivo at 13 mg/kg: 17.6%
Mus musculus [18]
  inhibition in vivo at 26 mg/kg: 86.2%

## NC(=O)N1C(=O)/C(=C(\O)c2cccs2)c2cc(Cl)ccc21 [TENIDAP]
[5]
  IC50: 36.7 µM
Rattus norvegicus [19]
  Activity: 3.75 mm2
[8]
  IC50: 2.56 µM
Rattus norvegicus [20]
  inhibition in vivo at 10.38 mg/kg: 38.9%
Mus musculus [21]
  inhibition in vivo at 20.76 mg/kg: 70.4%
Rattus norvegicus [22]
  inhibition in vivo at 10.38 mg/kg: 23.8%
Rattus norvegicus [23]
  inhibition in vivo at 10.38 mg/kg: 19.6%
